Results reported in patent US20250129021A1, “SMALL MOLECULE PROTEIN SYNTHESIS MODULATORS” (Interdict Bio, Inc., priority 2023, published 2025).

Tests used:
MCF7 = experiment: Cell viability (CellTiter-Fluor), MCF7; format: cell-based; conditions: Homo sapiens, 24-72 hrs
Procedure: (§1) Count and dispense 2,000-10,000 cells per well (100 μL volume) in black 96-well tissue culture microplate and let cells adhere overnight. Add compound dissolved in 100% DMSO to each well as needed and incubate cells in standard culture conditions for 24-72 hrs. Final DMSO concentration in each well should be 0.1-0.5%. At the desired time point, gently aspirate compound containing media and replace with PBS to wash. Repeat wash step for 2 total washes. Remove PBS and add 100 μL CellTiter-Fluor reagent (Promega) reagent to each well. Seal plate and incubate 1 hr at room temperature with orbital shaking. Analyze fluorescence using plate reader to quantify viable cells compared with vehicle (DMSO) control.

BCL-2 = experiment: In vitro transcription-translation (IVTT) assay, BCL-2 reporter; format: biochemical; conditions: HeLa S3 lysate, sfGFP/mCherry ratio, 2 hrs at 30° C.
Text: All reporter constructs have been cloned into the pT7CFE1-CHis plasmid (ThermoFisher #88860) using Gibson assembly procedures (NEB #E2611L). The parental pT7CFE1-CHis plasmid contains an EMCV IRES at the 5′UTR for translation initiation, a multiple-cloning site (MCS) for gene insertion, an optional C-terminal His-epitope tag, and polyA sequence in the 3′UTR to regulate mRNA stability. All reporters are designed to be inserted at the MCS to include a red fluorescent protein (mCherry), P2A self-cleaving peptide which releases the preceding mCherry protein product, and a fusion open reading frame containing a 3×FLAG epitope, a peptide sequence of interest (TEST), and green fluorescent protein (sfGFP).
Construct Plasmid Preparation: All plasmids are isolated from MACH1 cells (ThermoFisher) grown overnight in ampicillin-containing luria broth, and purified using ZymoPure Express Plasmid Midiprep Kit (Zymo Research). Constructs are sequenced verified and diluted to a working concentration of 110 ng/μL.
HeLa S3 Lysate Preparation: HeLa S3 cell pellets are acquired from Ipracell/Ipratech (Belgium) and shipped as 4 mL frozen cell pellets on dry ice for storage at −80° C. until use. The procedure for lysate preparation is as follows. Prepare 1× Lysis Buffer, cold and stored on ice:
Each preparation takes 8 cell pellets (4 ml packed volume each, approximately 1.0×10^9 cells per pellet). Thaw cell pellets from −80° C. on ice for 90 mins. Lay pellets horizontally on top of the ice and rotate every 30 mins to ensure even thawing. Once thawed, add 4 mL of cold lysis buffer to each pellet, and using a serological pipet, gently pipet up and down to break up clumps. Incubate resuspended cells in ice for an additional 30 mins (plunged into ice). During 30 min incubation, rinse and RNase-zap (Ambion) glass dounces (use loose pestle “A”), gently dry and place on ice until needed. Prepare RNase-free Eppendorf tubes for spinning and for batch storage. Add batch labels to 1.5-1.7 mL RNase-free microcentrifuge tubes (labeling scheme below). Each batch will have an extra 1.5-1.7 mL RNase-free microcentrifuge tube for 40 μL of lysate, label the top of this tube (labeling scheme below). After 30 min incubation, transfer all 8 mL of cell pellet to dounce. Cell lysis is complete after douncing 100 times. Aliquot cell lysis into 1.5-1.7 mL temporary-microcentrifuge tubes. Place tubes in centrifuge with “fins” out, and spin at 1,200×g for 5 mins. After the first spin use a 1 mL pipet to resuspend each tube and repeat spin. This acts as an additional lysis step, is more vigorous and increases lysate yield. During second spin get liquid N2 and a fresh conical tube on ice. After spin is complete, transfer supernatant (lysate) from microcentrifuge tubes into the 50 mL conical tube and keep on ice. Repeat steps 10-14 for all other cell pellets until completed. Once all cell lysate has been transferred to the 50 mL conical tube pipet to mix so the solution is homogenous. Transfer 1 mL of lysate into batch-labeled microcentrifuge tubes and flash freeze in liquid nitrogen. Be sure to pipet up and down to mix throughout transfer step. Place all tubes in the […] for long-term storage.
In vitro transcription-translation assay setup: Each assay includes a master mix containing lysate and shared components, a 96-well plate containing compound titrations for testing, a 96-well DNA plate with reporter constructs to be tested, 96-well skirted PCR plates, and 96-well flat-bottom, black, fluorescent assay plates. […]

KLE = experiment: Cell viability (CellTiter-Fluor), KLE; format: cell-based; conditions: Homo sapiens, 24-72 hrs
Procedure: as §1

MCL-1 = experiment: In vitro transcription-translation (IVTT) assay, MCL-1 reporter; format: biochemical; conditions: HeLa S3 lysate, sfGFP/mCherry ratio, 2 hrs at 30° C.
In short: (§2)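 Reporter: mCherry, P2A, then 3×FLAG-target peptide-sfGFP fusion, IRES-initiated; HeLa S3 lysate IVTT; cpd dilutions 30 μM−0.1 μM half-log in 100% DMSO (dilution-plate conc); DNA added last; 2 h, 30° C; PBS quench.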

MYC = experiment: In vitro transcription-translation (IVTT) assay, MYC reporter; format: biochemical; conditions: HeLa S3 lysate, sfGFP/mCherry ratio, 2 hrs at 30° C.
In short: as §2

HPAF-II = experiment: Cell viability (CellTiter-Fluor), HPAF-II; format: cell-based; conditions: Homo sapiens, 24-72 hrs
Procedure: as §1

LS411N = experiment: Cell viability (CellTiter-Fluor), LS411N; format: cell-based; conditions: Homo sapiens, LS-411N, 24-72 hrs
Procedure: as §1

HEK 293T = experiment: Cell viability (CellTiter-Fluor), HEK 293T; format: cell-based; conditions: Homo sapiens, 24-72 hrs
Procedure: as §1

HEPG2 = experiment: Cell viability (CellTiter-Fluor), HEPG2; format: cell-based; conditions: Homo sapiens, 24-72 hrs
Procedure: as §1

NCI-H1915 = experiment: Cell viability (CellTiter-Fluor), NCI-H1915; format: cell-based; conditions: 24-72 hrs
Procedure: as §1

CCND1 = experiment: In vitro transcription-translation (IVTT) assay, CCND1 reporter; format: biochemical; conditions: HeLa S3 lysate, sfGFP/mCherry ratio, 2 hrs at 30° C.
In short: as §2

ALK = experiment: In vitro transcription-translation (IVTT) assay, ALK reporter; format: biochemical; conditions: HeLa S3 lysate, sfGFP/mCherry ratio, 2 hrs at 30° C.
In short: as §2

KRAS G12D = experiment: In vitro transcription-translation (IVTT) assay, KRAS G12D reporter; format: biochemical; conditions: HeLa S3 lysate, sfGFP/mCherry ratio, 2 hrs at 30° C.
In short: as §2

Structure (SMILES) | IC50 (MCF7) [µM] | IC50 (BCL-2) [µM] | IC50 (MCL-1) [µM] | IC50 (MYC) [µM] | IC50 (HEPG2) [µM] | IC50 (NCI-H1915) [µM] | IC50 (CCND1) [µM] | IC50 (ALK) [µM] | IC50 (KRAS G12D) [µM] | IC50 (KLE) [µM] | IC50 (HPAF-II) [µM] | IC50 (LS411N) [µM] | IC50 (HEK 293T) [µM]
COc1ccc(C[C@H]2NC[C@H](O)[C@H]2OC(=O)NCCNc2nccs2)cc1 [V187826, (2R,3S,4S)-4-hydroxy-2-[(4-methoxyphenyl)methyl]pyrrolidin-3-yl N-[2-(1,3-thiazol-2-ylamino)ethyl]carbamate] | 1 to 4 | 20 to 30 | 10 to 20 | < 10 | – | – | 20 to 30 | – | – | – | – | – | 1 to 4
COc1ccc(C[C@H]2NC[C@H](O)[C@H]2OC(=O)NCC[C@H]2CCNC2)cc1 [Cmpd V187879] | 1 to 4 | 10 to 20 | < 10 | < 10 | – | – | < 10 | – | – | – | – | – | ≥ 4
COc1ccc(C[C@H]2NC[C@H](O)[C@H]2OC(=O)NCCc2nc[nH]c2C)cc1 [V187823, (2R,3S,4S)-4-hydroxy-2-[(4-methoxyphenyl)methyl]pyrrolidin-3-yl N-[2-(5-methyl-1H-imidazol-4-yl)ethyl]carbamate] | – | 10 to 20 | < 10 | < 10 | – | – | 10 to 20 | – | – | – | – | – | ≥ 4
COc1ccc(C[C@H]2NC[C@H](O)[C@H]2OC(=O)NCCNc2cc[nH]n2)cc1 [V187827, (2R,3S,4S)-4-hydroxy-2-[(4-methoxyphenyl)methyl]pyrrolidin-3-yl N-[2-(1H-pyrazol-3-ylamino)ethyl]carbamate] | – | 10 to 20 | < 10 | < 10 | – | – | < 10 | – | – | – | – | – | ≥ 4
COc1ccc(C[C@H]2NC[C@H](O)[C@H]2OC(=O)NCCc2cnn[nH]2)cc1 [Cmpd V187783] | 1 to 4 | < 10 | < 10 | < 10 | – | – | – | – | – | – | – | – | 0.25 to 1
COc1ccc(C[C@H]2NC[C@H](O)[C@H]2OC(=O)NC[C@H]2CCNC2)cc1 [V187686, (2R,3S,4S)-4-hydroxy-2-(4-methoxybenzyl)pyrrolidin-3-yl (((S)-pyrrolidin-3-yl)methyl)carbamate] | 1 to 4 | – | – | < 10 | – | ≥ 4 | 10 to 20 | < 10 | 10 to 20 | – | ≥ 4 | ≥ 4 | ≥ 4
COc1ccc(C[C@H]2NC[C@H](O)[C@H]2OC(=O)NCCNc2ncc[nH]2)cc1 [V187825, (2R,3S,4S)-4-hydroxy-2-[(4-methoxyphenyl)methyl]pyrrolidin-3-yl N-[2-(1H-imidazol-2-ylamino)ethyl]carbamate] | ≥ 4 | 20 to 30 | 10 to 20 | 20 to 30 | – | – | 10 to 20 | – | – | – | – | – | ≥ 4
COc1ccc(C[C@H]2NC[C@H](O)[C@H]2OC(=O)NCc2cc[nH]c(=O)c2)cc1 [V188053, (2R,3S,4S)-4-hydroxy-2-[(4-methoxyphenyl)methyl]pyrrolidin-3-yl N-[(2-oxo-1H-pyridin-4-yl)methyl]carbamate] | 1 to 4 | – | < 10 | < 10 | – | 1 to 4 | < 10 | – | – | 1 to 4 | 1 to 4 | 1 to 4 | 1 to 4
COc1ccc(C[C@H]2NC[C@H](O)[C@H]2OC(=O)NC[C@@H]2CCNC2)cc1 [V187685, (2R,3S,4S)-4-hydroxy-2-[(4-methoxyphenyl)methyl]pyrrolidin-3-yl N-[(3R)-pyrrolidin-3-ylmethyl]carbamate] | 1 to 4 | 10 to 20 | < 10 | < 10 | – | – | – | – | 10 to 20 | – | – | – | ≥ 4

More lines, main results first:

IC50 (MCF7) [µM] | IC50 (BCL-2) [µM] | IC50 (MCL-1) [µM] | IC50 (MYC) [µM] | IC50 (HEPG2) [µM] | IC50 (NCI-H1915) [µM] | IC50 (CCND1) [µM] | IC50 (ALK) [µM] | IC50 (KRAS G12D) [µM] | Structure (SMILES) | IC50 (KLE) [µM] | IC50 (HPAF-II) [µM] | IC50 (LS411N) [µM] | IC50 (HEK 293T) [µM]
0.25 to 1 | 10 to 20 | < 10 | < 10 | 1 to 4 | ≥ 4 | – | – | – | COc1ccc(C[C@H]2NC[C@H](O)[C@H]2OC(=O)NCC[C@@H]2CCNC2)cc1 [V187878, (2R,3S,4S)-4-hydroxy-2-[(4-methoxyphenyl)methyl]pyrrolidin-3-yl N-{2-[(3S)-pyrrolidin-3-yl]ethyl}carbamate] | ≥ 4 | ≥ 4 | 1 to 4 | ≥ 4
1 to 4 | < 10 | < 10 | < 10 | – | – | < 10 | – | – | COc1ccc(C[C@H]2NC[C@H](O)[C@H]2OC(=O)NCCc2ccncc2C#N)cc1 [V187940, (2R,3S,4S)-4-hydroxy-2-[(4-methoxyphenyl)methyl]pyrrolidin-3-yl N-[2-(3-cyanopyridin-4-yl)ethyl]carbamate] | – | – | – | 0.25 to 1
1 to 4 | – | < 10 | < 10 | – | – | < 10 | < 10 | – | COc1ccc(C[C@H]2NC[C@H](O)[C@H]2OC(=O)NCCn2ccnc2)cc1 [V187819, (2R,3S,4S)-4-hydroxy-2-[(4-methoxyphenyl)methyl]pyrrolidin-3-yl N-[2-(imidazol-1-yl)ethyl]carbamate] | – | – | – | ≥ 4
1 to 4 | – | < 10 | < 10 | – | – | < 10 | – | – | COc1ccc(C[C@H]2NC[C@H](O)[C@H]2OC(=O)NCCc2cnc(N)[nH]2)cc1 [Cmpd V187594] | – | – | – | ≥ 4
1 to 4 | 10 to 20 | < 10 | – | – | – | 10 to 20 | – | – | CNC(=O)CNC(=O)O[C@@H]1[C@@H](O)CN[C@@H]1Cc1ccc(OC)cc1 [V188017, (2R,3S,4S)-4-hydroxy-2-[(4-methoxyphenyl)methyl]pyrrolidin-3-yl N-[(methylcarbamoyl)methyl]carbamate] | – | – | – | 1 to 4
